Source: ChEMBL document CHEMBL1156592, “4-(1H-indazol-5-yl)-6-phenylpyrimidin-2(1H)-one analogs as potent CDC7 inhibitors” (Bioorg Med Chem Lett, 2008)

How the values were obtained:
[1] = target: Cell division cycle 7-related protein kinase (Homo sapiens, UniProt O00311); assay: Inhibition of CDC7-DBF4
A549 = assay: Growth inhibition of human A549 cells; assay type: functional
[2] = Metabolic stability in mouse microsomes assessed as half life; assay type: ADME, Microsome

Sequence of Cell division cycle 7-related protein kinase (O00311 whole entry): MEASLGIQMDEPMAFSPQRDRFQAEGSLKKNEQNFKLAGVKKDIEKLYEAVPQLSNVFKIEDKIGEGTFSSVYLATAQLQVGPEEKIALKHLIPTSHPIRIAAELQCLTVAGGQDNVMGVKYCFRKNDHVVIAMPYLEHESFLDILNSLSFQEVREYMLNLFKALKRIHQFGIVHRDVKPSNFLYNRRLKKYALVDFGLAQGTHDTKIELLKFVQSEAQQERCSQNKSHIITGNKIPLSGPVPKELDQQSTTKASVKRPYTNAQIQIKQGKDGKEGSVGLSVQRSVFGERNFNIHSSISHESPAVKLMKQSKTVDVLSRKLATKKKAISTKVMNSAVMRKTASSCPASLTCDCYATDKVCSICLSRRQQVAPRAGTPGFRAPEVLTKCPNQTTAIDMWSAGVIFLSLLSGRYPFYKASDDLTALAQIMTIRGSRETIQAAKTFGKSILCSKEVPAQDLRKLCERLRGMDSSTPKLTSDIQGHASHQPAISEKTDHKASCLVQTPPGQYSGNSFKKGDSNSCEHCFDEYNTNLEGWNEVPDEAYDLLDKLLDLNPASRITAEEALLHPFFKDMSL

Row | SMILES | IC50 [1] [nM] | GI50 (A549) [nM] | half-life [2] [min]
1 | O=c1nc(-c2ccc3[nH]ncc3c2)cc(-c2cccc(OCc3ccccc3)c2)[nH]1 | 6 |  | 
2 | Cc1cc(-c2cc(-c3ccccc3)[nH]c(=O)n2)ccc1O |  | > 10000 | 
3 | COc1ccc(-c2cc(-c3ccnc(N)c3)nc(=O)[nH]2)c(OC)c1 | 1000 |  | 
4 | COc1ccc(-c2cc(-c3ccnc(N(C)C)c3)nc(=O)[nH]2)c(OC)c1 | 7300 |  | 
5 | O=c1nc(-c2ccc3[nH]ncc3c2)cc(-c2ccccc2F)[nH]1 | 10 |  | 
6 | O=c1nc(-c2ccc3[nH]ncc3c2)cc(-c2ccc(N3CCNCC3)cc2)[nH]1 | 40 |  | 
7 | O=c1nc(-c2ccc3[nH]ncc3c2)cc(-c2cccc(C(F)(F)F)c2)[nH]1 | 110 |  | 
8 | O=c1nc(-c2ccc3[nH]ncc3c2)cc(-c2cccc(Cl)c2)[nH]1 | 5 | 600 | 
9 | O=c1nc(-c2ccncc2)cc(-c2cccc(Cl)c2)[nH]1 | > 13000 |  | 
10 | O=c1nc(-c2ccc3[nH]ncc3c2)cc(-c2ccc(OCc3ccccc3)cc2)[nH]1 | 350 |  | 
11 | O=c1nc(-c2ccc3[nH]ncc3c2)cc(-c2cccc(F)c2)[nH]1 | 150 |  | 
12 | O=c1nc(-c2ccc(O)cc2)cc(-c2ccccc2)[nH]1 | 30 | > 10000 | 4
13 | CCc1ccc(-c2cc(-c3ccc4n[nH]cc4c3)nc(=O)[nH]2)cc1 | 100 |  | 
